Data published in patent EP2977042B1, “OLOPATADINE FORMULATIONS FOR TOPICAL NASAL ADMINISTRATION” (Novartis AG, priority 2007, dated 2008).
Counter-ions that a name gives are not always drawn.

Experiments:
Type in all cases: physicochemical
[1] = Visual observation of composition clarity during compounding
Experimental: An exemplary compounding procedure for the nasal composition shown in Table 1 is described as below. • 1. Tare a suitable compounding vessel with magnetic stir bar. Add approximately 80% of the batch weight of purified water. • 2. While stirring, add dibasic sodium phosphate (anhydrous), sodium chloride, edetate disodium, benzalkonium chloride and olopatadine HCl. • 3. Add equivalent to approximately 0.55 g, 6N hydrochloric acid per 100 ml batch. • 4. Allow adequate time between each addition for dissolution of each ingredient • 5. Add purified water to approximately 90% of final batch weight. • 6. Measure pH and adjust, if necessary, to 3.7 with 6N (and/or 1N) hydrochloric acid and 1N sodium hydroxide. • 7. Adjust to final batch weight with purified water (QS). • 8. Measure final pH. • 9. Filter through 0.2 µm filtration membrane. The two compositions shown in Table 2 below were prepared using the procedure described in Example 1 and visual observations of the compositions clarity were made at different points during the compounding procedure. […] In each case, visual observations relating to the composition's clarity were recorded. […] Visual observations of the clarity of each composition were recorded as each composition was prepared.

[2] = Dissolution rate of olopatadine hydrochloride in a nasal formulation containing 0.01% EDTA and 0.01% BAC, effect of NaCl and Na2HPO4 concentrations
Experimental: The effect of NaCl and Na2HPO4 concentrations on the dissolution rate of olopatadine hydrochloride in a nasal formulation containing 0.01% EDTA and 0.01% BAC was determined. The aqueous solubility of olopatadine HCl decreases with increasing concentration of NaCl. However, increasing phosphate buffer correlates with increased aqueous solubility of olopatadine HCl in the presence of NaCl.

[3] = Acid-base equilibrium (pKa values) of olopatadine
Excerpt: Olopatadine has both a carboxylic functional group (pKa1 = 4.18) and a tertiary amino group (pKa2 = 9.79). It exists in different ionic forms depending upon the pH of the solution. Olopatadine exists predominantly as a zwitterion in the pH range between the two pKa values with a negatively-charged carboxylic group and a positively-charged tertiary amino group. The isoelectric point of the olopatadine zwitterion is at pH 6.99. At a pH lower than pKa1, cationic olopatadine (with ionized tertiary amino group) is dominant. At a pH higher than pKa2, anionic olopatadine (with ionized carboxylic group) is dominant.

[4] = Dissolution rate of olopatadine hydrochloride in water, effect of NaCl and Na2HPO4
Experimental: The effect of NaCl on the dissolution rate of olopatadine hydrochloride in water was determined.

solubility of 0.665% olopatadine hydrochloride in the tested nasal vehicle ([1]; without a phosphate salt) | dissolution of 0.665% olopatadine hydrochloride in water ([1]; without phosphate buffer, in the presence of 0.7% NaCl, pH as low as 3.6, compounding procedure of Example 1) | aqueous solubility ([2]; with increasing concentration of NaCl) | aqueous solubility ([2]; with increasing phosphate buffer, in the presence of NaCl) | pKa1 ([3]; carboxylic functional group) | isoelectric point of the olopatadine zwitterion ([3]; given as pH) | pKa2 ([3]; tertiary amino group) | effect of NaCl on the rate of dissolution ([4]; in water) | effect of addition of Na2HPO4 on dissolution ([4]; in water with NaCl) | time for complete dissolution of 0.6% olopatadine solution ([4]; in water with NaCl, with Na2HPO4) | time for complete dissolution of 0.6% olopatadine solution ([4]; in water with NaCl, without Na2HPO4, assuming the entire amount would eventually dissolve) | Structure (SMILES)
not soluble | did not completely dissolve | decreases | increased | – | – | – | – | – | – | – | CN(C)CC/C=C1/c2ccccc2COc2ccc(CC(=O)O)cc21 [olopatadine HCl, (Z)-11-(3-dimethylaminopropylidene)-6,11-dihydro-dibenz-[b,e]oxepin-2-acetic acid]
– | – | – | – | 4.18 | 6.99 | 9.79 | significant reduction | dramatically improved | less than one | at least several hours | CN(C)CC/C=C1/c2ccccc2COc2ccc(CC(=O)O)cc21 [olopatadine, Z-11-(3-dimethylaminopropylidene)-6, 11-dihydrodibenz[b,e]oxepine-2-acetic acid]
